ChEMBL document CHEMBL3045296, “Synthesis of aryloxyalkylamines as h5-HT1B agonists with potential analgesic activity” (Med Chem Res, 2009)

Tests used:
[1] = molecular target: 5-hydroxytryptamine receptor 1D (Homo sapiens, UniProt P28221); test: Binding affinity to Homo sapiens (human) 5HT1D receptor by radioligand binding assay
[2] = molecular target: 5-hydroxytryptamine receptor 1B (Homo sapiens, UniProt P28222); test: Binding affinity to Homo sapiens (human) 5HT1B receptor by radioligand binding assay
Mus musculus [3] = test: Toxicity in Mus musculus (mouse) assessed as difficulties in respiration at 50 mg/kg, ip; type: organism-based; design: dose 50 mg/kg, route intraperitoneal; conditions: in vivo
Mus musculus [4] = test: Toxicity in Mus musculus (mouse) assessed as skeletal muscle incoordination at 50 mg/kg, ip; type: organism-based, Muscle tissue; design: dose 50 mg/kg, route intraperitoneal; conditions: in vivo
Mus musculus [5] = test: Analgesic activity in Mus musculus (mouse) assessed as writhing response at 75 mg/kg, ip relative to control; type: functional; conditions: route intraperitoneal
Mus musculus [6] = test: Toxicity in Mus musculus (mouse) assessed as excitation at 50 mg/kg, ip; type: organism-based; design: dose 50 mg/kg, route intraperitoneal; conditions: in vivo
Mus musculus [7] = test: Toxicity in Mus musculus (mouse) assessed as tail and hair erection at 50 mg/kg, ip; type: organism-based; design: dose 50 mg/kg, route intraperitoneal; conditions: in vivo
Mus musculus [8] = test: Toxicity in Mus musculus (mouse) assessed as tremors at 50 mg/kg, ip; type: organism-based; design: dose 50 mg/kg, route intraperitoneal; conditions: in vivo
Mus musculus [9] = test: Toxicity in Mus musculus (mouse) assessed as irritability at 50 mg/kg, ip; type: organism-based; design: dose 50 mg/kg, route intraperitoneal; conditions: in vivo
Mus musculus [10] = test: Toxicity in Mus musculus (mouse) assessed as protrusion of eyes at 50 mg/kg, ip; type: organism-based; design: dose 50 mg/kg, route intraperitoneal; conditions: in vivo
Mus musculus [11] = test: Analgesic activity in Mus musculus (mouse) assessed as writhing response at 50 mg/kg, ip relative to control; type: functional; conditions: route intraperitoneal
Mus musculus [12] = test: Analgesic activity in Mus musculus (mouse) assessed as writhing response at 25 mg/kg, ip relative to control; type: functional; conditions: route intraperitoneal
Mus musculus [13] = test: Toxicity in Mus musculus (mouse) assessed as muscle twitching at 50 mg/kg, ip; type: organism-based, Muscle tissue; design: dose 50 mg/kg, route intraperitoneal; conditions: in vivo
Mus musculus [14] = test: Toxicity in Mus musculus (mouse) assessed as epilepsy at 50 mg/kg, ip; type: organism-based; design: dose 50 mg/kg, route intraperitoneal; conditions: in vivo
Mus musculus [15] = test: Analgesic activity in Mus musculus (mouse) assessed as writhing response at 100 mg/kg, ip relative to control; type: functional; conditions: route intraperitoneal
Mus musculus [16] = test: Toxicity in Mus musculus (mouse) assessed as excitation at 20 mg/kg, ip; type: organism-based; design: dose 20 mg/kg, route intraperitoneal; conditions: in vivo
Mus musculus [17] = test: Toxicity in Mus musculus (mouse) assessed as tail and hair erection at 20 mg/kg, ip; type: organism-based; design: dose 20 mg/kg, route intraperitoneal; conditions: in vivo
Mus musculus [18] = test: Analgesic activity in Mus musculus (mouse) assessed as writhing response at 20 mg/kg, ip relative to control; type: functional; conditions: route intraperitoneal
Mus musculus [19] = test: Toxicity in Mus musculus (mouse) assessed as skeletal muscle incoordination at 20 mg/kg, ip; type: organism-based, Muscle tissue; design: dose 20 mg/kg, route intraperitoneal; conditions: in vivo
Mus musculus [20] = test: Toxicity in Mus musculus (mouse) assessed as protrusion of eyes at 20 mg/kg, ip; type: organism-based; design: dose 20 mg/kg, route intraperitoneal; conditions: in vivo
Mus musculus [21] = test: Toxicity in Mus musculus (mouse) assessed as irritability at 20 mg/kg, ip; type: organism-based; design: dose 20 mg/kg, route intraperitoneal; conditions: in vivo
Mus musculus [22] = test: Toxicity in Mus musculus (mouse) assessed as tremors at 20 mg/kg, ip; type: organism-based; design: dose 20 mg/kg, route intraperitoneal; conditions: in vivo
Mus musculus [23] = test: Toxicity in Mus musculus (mouse) assessed as difficulties in respiration at 20 mg/kg, ip; type: organism-based; design: dose 20 mg/kg, route intraperitoneal; conditions: in vivo
Mus musculus [24] = test: Toxicity in Mus musculus (mouse) assessed as muscle twitching at 20 mg/kg, ip; type: organism-based, Muscle tissue; design: dose 20 mg/kg, route intraperitoneal; conditions: in vivo
Mus musculus [25] = test: Toxicity in Mus musculus (mouse) assessed as epilepsy at 20 mg/kg, ip; type: organism-based; design: dose 20 mg/kg, route intraperitoneal; conditions: in vivo

Chain of 5-hydroxytryptamine receptor 1B (P28222 whole entry): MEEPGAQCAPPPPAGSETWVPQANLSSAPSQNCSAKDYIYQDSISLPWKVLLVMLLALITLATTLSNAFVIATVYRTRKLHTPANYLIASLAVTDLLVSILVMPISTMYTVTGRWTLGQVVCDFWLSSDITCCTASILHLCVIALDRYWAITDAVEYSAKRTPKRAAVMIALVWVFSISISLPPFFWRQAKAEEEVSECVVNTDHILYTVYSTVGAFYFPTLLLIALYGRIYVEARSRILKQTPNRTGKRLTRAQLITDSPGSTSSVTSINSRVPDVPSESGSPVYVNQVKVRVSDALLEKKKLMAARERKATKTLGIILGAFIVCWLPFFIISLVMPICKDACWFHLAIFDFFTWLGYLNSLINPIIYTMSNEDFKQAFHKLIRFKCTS
Chain of 5-hydroxytryptamine receptor 1D (P28221 whole entry): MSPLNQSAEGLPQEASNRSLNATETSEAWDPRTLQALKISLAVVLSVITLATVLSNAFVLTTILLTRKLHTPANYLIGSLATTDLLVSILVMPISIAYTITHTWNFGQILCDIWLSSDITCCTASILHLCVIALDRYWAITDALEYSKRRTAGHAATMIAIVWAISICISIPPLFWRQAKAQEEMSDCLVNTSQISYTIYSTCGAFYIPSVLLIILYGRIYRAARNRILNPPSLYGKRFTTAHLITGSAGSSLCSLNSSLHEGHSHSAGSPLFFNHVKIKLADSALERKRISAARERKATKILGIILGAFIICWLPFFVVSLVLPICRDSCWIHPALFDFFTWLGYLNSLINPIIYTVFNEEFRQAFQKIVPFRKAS

For `CNCCOc1ccc(Cl)cc1Cl`, the Ki [1] was 0.975 µM and the Ki [2] was 2.75 µM.

For `CNCCOc1c(Br)cccc1Br.O=C(O)C(=O)O`, the Activity (Mus musculus [3]) was “Toxic”, the Activity (Mus musculus [4]) was “Toxic” and the Activity (Mus musculus [5]) was 100%. The Activity (Mus musculus [6]) was “Toxic”, the Activity (Mus musculus [7]) was “Toxic” and the Activity (Mus musculus [8]) was “Toxic”. For the same compound, the Activity (Mus musculus [9]) was “Toxic”, the Activity (Mus musculus [10]) was “Toxic” and the Activity (Mus musculus [11]) was 62.5%. The Activity (Mus musculus [12]) was 25%, the Activity (Mus musculus [13]) was “Toxic” and the Activity (Mus musculus [14]) was “Toxic”.

With `CNC(C)COc1c(Br)cccc1Br.O=C(O)C(=O)O` (racemic) the Activity (Mus musculus [3]) was “Toxic”, the Activity (Mus musculus [4]) was “Toxic” and the Activity (Mus musculus [5]) was 100%. The Activity (Mus musculus [6]) was “Toxic”, the Activity (Mus musculus [7]) was “Toxic” and the Activity (Mus musculus [8]) was “Toxic”. The Ki [1] was 0.225 µM, the Activity (Mus musculus [9]) was “Toxic” and the Activity (Mus musculus [10]) was “Toxic”. For the same compound, the Activity (Mus musculus [11]) was 75%, the Activity (Mus musculus [12]) was 0% and the Activity (Mus musculus [13]) was “Toxic”. For the same compound, the Activity (Mus musculus [14]) was “Toxic” and the Ki [2] was 0.0715 µM.

For `CN1CCN([C@@H](COc2cccc(Cl)c2Cl)c2ccccc2)CC1`, the Ki [1] was 1.49 µM and the Ki [2] was 0.833 µM.

With `CNCCOc1cccc(Cl)c1Cl` the Ki [1] was 2.03 µM and the Ki [2] was 0.0364 µM.

For `CC(=O)Oc1ccccc1C(=O)O` [ASPIRIN], the Activity (Mus musculus [15]) was 100%.

`CN[C@@H](COc1cccc(Cl)c1Cl)c1ccccc1` was tested, and the Ki [1] was 6.29 µM and the Ki [2] was over 10 µM.

With `CNC(C)COc1ccc(Br)cc1Br` (racemic) the Ki [1] was 1.12 µM and the Ki [2] was 2.32 µM.

In the case of `CNC(C)COc1ccc(Cl)cc1Cl` (racemic), the Ki [1] is reported as 2.87 µM and the Ki [2] is reported as 4.2 µM.

`CN1CCN([C@H](COc2cccc(Cl)c2Cl)c2ccccc2)CC1` showed a Ki [1] of 5.46 µM and a Ki [2] of 0.912 µM.

Compound `CN1CCN(CCOc2ccc(Br)cc2Br)CC1` has a Ki [1] of over 10 µM and a Ki [2] of 1.46 µM.

`CNC(C)COc1cc(Cl)ccc1Cl.O=C(O)C(=O)O` (racemic) was tested, and the Activity (Mus musculus [16]) was “Toxic”, the Activity (Mus musculus [17]) was “Toxic” and the Ki [1] was 5.4 µM. For the same compound, the Activity (Mus musculus [18]) was 66%, the Activity (Mus musculus [19]) was “Toxic” and the Activity (Mus musculus [20]) was “Toxic”. For the same compound, the Activity (Mus musculus [21]) was “Toxic”, the Activity (Mus musculus [22]) was “Toxic” and the Activity (Mus musculus [23]) was “Toxic”. The Activity (Mus musculus [24]) was “Toxic”, the Activity (Mus musculus [25]) was “Toxic” and the Ki [2] was 6.69 µM.

`CNC(C)COc1cccc(Oc2ccccc2)c1` (racemic) showed a Ki [1] of 0.393 µM and a Ki [2] of 0.752 µM.

For `CNC(C)COc1cccc(Cl)c1Cl` (racemic), the Ki [1] was 0.599 µM and the Ki [2] was 2.48 µM.

For `CNCCOc1cc(Cl)ccc1Cl`, the Ki [1] was 3.82 µM and the Ki [2] was 3.64 µM.

Compound `CNCCOc1ccc(Br)cc1Br` has a Ki [1] of 1.24 µM and a Ki [2] of 1.25 µM.

Compound `CN[C@H](COc1cccc(Cl)c1Cl)c1ccccc1` has a Ki [1] of 7.79 µM.
